Columns and labels:
man = settings: in vivo; cited from earlier work
σ receptors = settings: cited from earlier work
σ receptor = assay: In vitro binding to σ receptors ([3H]-DTG or [3H]-3-PPP); parameters: species or system calf; settings: [3H]-DTG
Protocol: (§1) The products are tested on each receptor at 5 different concentrations (10^-5 M, 10^-6 M, 10^-7 M, 10^-8 M and 10^-9 M) in triplicate. When the binding coefficient IC50 (concentration of product which displaces 50% of the radioligand) is less than a concentration of 10^-6 M, the Ki is measured by using 12 concentrations of the product.
(§2) The receptors for which the affinity of the compounds of the invention was determined, the tissue chosen, the concentration used for determining the non-specific fraction and the radioligand used to label the receptor are shown in Table A.
10^-6 M Calf hippocampus

[1] = tested on: hypermotility induced by amphetamine; assay: Antagonism of hypermotility induced by amphetamine; type: in vivo, NMRI-CERJ mice; settings: 64 mg/kg, IP, mice; d-amphetamine 4 mg.kg^-1 IP
Protocol: This test was developed by Costall B., et al. (Brain Research, 1977, 123, 89-111).
Groups of 10 NMRI-CERJ mice are injected intraperitoneally (IP) with 4 mg.kg^-1 of d-amphetamine immediately after the compound to be tested (also injected by the IP route) and the mice are placed in an activity cage for 30 minutes.
The number of interruptions of photoelectric cells is recorded, as well as the stereotypical behavior.
The activity of the tested compounds is expressed as percentage of antagonism of the hyperactivity induced by amphetamine.

σ1 receptor = molecular target: T1, σ1 receptor (Cavia porcellus, UniProt Q60492); assay: In vitro binding to σ1 receptors ([3H]-Pentazocine); parameters: species or system guinea pig
T1 construct: Guinea pig brain; from tissue; host or cells: guinea pig brain
T1 sequence (Q60492 whole entry): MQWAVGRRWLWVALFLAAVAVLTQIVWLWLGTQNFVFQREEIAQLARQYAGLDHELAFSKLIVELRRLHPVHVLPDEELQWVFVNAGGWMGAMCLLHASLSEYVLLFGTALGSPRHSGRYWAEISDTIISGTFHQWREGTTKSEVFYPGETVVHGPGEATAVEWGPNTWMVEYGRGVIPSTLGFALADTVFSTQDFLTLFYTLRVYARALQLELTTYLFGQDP
Protocol: as §1, §2

[2] = tested on: hyperactivity induced by N-allylnormetazocine; assay: Antagonism of the hyperactivity induced by N-allylnormetazocine; type: in vivo; settings: 32 mg.kg^-1, rats; N-allylnormetazocine 50 mg/kg subcutaneous
Protocol: This test was developed by Snyder S. H. et al. (J. Neuropsychiatry, 1989, 1,7-15).
Measurement of the hyperactivity induced by this product is therefore used as an alternative model for detecting the antipsychotic activity of the compounds which have an effect on σ receptors.
A group of 12 rats is treated with the compound to be tested before subcutaneous administration of 50 mg/kg of N-allylnormetazocine. 30 minutes later, the animals are placed in an activity cage for 30 minutes.
Haloperidol is used as reference compound.

σ2 receptor = molecular target: T2, σ2 receptor (Cavia porcellus, UniProt H0V073); assay: In vitro binding to σ2 receptors ([3H]-DTG); parameters: species or system guinea pig
T2 construct: Guinea pig brain; from tissue; host or cells: guinea pig brain
T2 sequence (H0V073 1-176): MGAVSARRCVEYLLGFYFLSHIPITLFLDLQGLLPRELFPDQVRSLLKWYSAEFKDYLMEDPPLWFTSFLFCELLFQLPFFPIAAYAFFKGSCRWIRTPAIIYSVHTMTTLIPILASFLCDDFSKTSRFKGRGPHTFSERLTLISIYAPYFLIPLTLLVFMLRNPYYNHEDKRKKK
Protocol: as §1, §2

Row | SMILES | IC50 (σ receptor) | percentage of antagonism of the hyperactivity induced by amphetamine [1] | other results
1 | C=CCN1CCC2(C)c3cc(O)ccc3CC1C2C (single isomer, unassigned) [N-Allylnormetazocine] |  |  | psychotic behavior in man (man): induces psychotic behavior in man; agonism at σ receptors (σ receptors): prototype agonist for σ receptors
2 | Fc1ccc2c(c1)CC(CN1CCN(Cc3ccccc3)CC1)O2 (stereo not shown) [Example 1, 1-[(5-FLUORO-2,3-DIHYDROBENZOFUR-2-YL) METHYL]-4-BENZYLPIPERAZINE] | 9.1 nM | 43% | 
3 | c1ccc(CN2CCN(CC3Cc4ccccc4O3)CC2)cc1 (stereo not shown) [Example 4, 1-[(2,3-DIHYDROBENZOFUR-2-YL) METHYL]-4-BENZYLPIPERAZINE] | 7 nM | 61% | 
4 | CC(CN1CCN(Cc2ccccc2)CC1)Oc1ccccc1 (stereo not shown) [Example 9, 1-(2-PHENOXYPROPYL)-4-BENZYLPIPERAZINE] |  |  | IC50 (σ1 receptor): 1.3 nM; antagonism of the hypermotility induced by N-allylnormetazocine [2]: 42%; IC50 (σ2 receptor): 40 nM
5 | COc1ccc2c(CN3CCN(Cc4ccccc4)CC3)cc(=O)oc2c1 [Example 3, 1-[(7-METHOXY-2-OXOCHROM-3-EN-4-YL) METHYL]-4-BENZYLPIPERAZINE] | 1.3 nM |  | 

— patent publication US5691340A, “Benzopyran derivatives” (Adir et Compagnie, priority 1994, dated 1997)
